Where a name gives a salt, the structure may show the parent alone. Marks after values point to notes of the source that are not given here.
System: patients with advanced solid tumours
Assay: Phase I safety: DLT and adverse events (CTCAE v3.0)
[1] = Grades 3/4, level 1, 10 mg 3 days every 2 weeks, 3 patients
[2] = Grades 3/4, level 2, 10 mg, 6 patients
[3] = Grades 3/4, level 3, 20 mg, 6 patients
[4] = Grades 3/4, level 4, 30 mg, 4 patients
[5] = Grades 3/4, level 5, 50 mg, 4 patients
[6] = Grades 3/4, level 5.5, 60 mg, 7 patients
[7] = Grades 3/4, level 6, 70 mg, 6 patients
[8] = Grades 3/4, level 7, 90 mg, 2 patients
[9] = all 38 treated patients, all grades
[10] = dose level 3, dose 20, 5 days every 2 weeks
[11] = dose level 6, dose 70, 5 days every 2 weeks, re-opened for expansion

CCCCc1nc2cc(/C=C/C(=O)NO)ccc2n1CCN(CC)CC [SB939, 3-[2-butyl-1-(2-diethylaminoethyl)-1H-benzoimidazol-5-yl]-N-hydroxyacrylami-hydrochloride]
Myositis, no. of patients [1]: 0
Nausea, no. of patients [1]: 0
Neutropenia, no. of patients [1]: 1
QT prolongation, no. of patients [1]: 0
Supra ventricular arrythmia, no. of patients [1]: 0
Syncope, no. of patients [1]: 0
Thrombocytopenia, no. of patients [1]: 0
Ventricular arrythmias (PVCs), no. of patients [1]: 0
Ventricular bigemini, no. of patients [1]: 0
Vomiting, no. of patients [1]: 0
ALT (raised), no. of patients [2]: 0
AST (raised), no. of patients [2]: 0
Abdominal pain, no. of patients [2]: 0
Alkaline phophatase (raised), no. of patients [2]: 1
Altered taste, no. of patients [2]: 0
Anaemia, no. of patients [2]: 0
Anorexia, no. of patients [2]: 0
Bilirubin (raised), no. of patients [2]: 0
CPK, no. of patients [2]: 0
Cardiac arrythmia other, no. of patients [2]: 0
Cardiac dysfunction, no. of patients [2]: 0
Cardiac ischaemia, no. of patients [2]: 0
Constipation, no. of patients [2]: 0
Creatinine (raised), no. of patients [2]: 0
Diarrhoea, no. of patients [2]: 0
Fatigue, no. of patients [2]: 0
Leukopenia, no. of patients [2]: 0
Lymphopenia, no. of patients [2]: 2
Mucositis, no. of patients [2]: 0
Myositis, no. of patients [2]: 0
Nausea, no. of patients [2]: 0
Neutropenia, no. of patients [2]: 0
QT prolongation, no. of patients [2]: 0
Supra ventricular arrythmia, no. of patients [2]: 0
Syncope, no. of patients [2]: 0
Thrombocytopenia, no. of patients [2]: 0
Ventricular arrythmias (PVCs), no. of patients [2]: 0
Ventricular bigemini, no. of patients [2]: 0
Vomiting, no. of patients [2]: 0
ALT (raised), no. of patients [3]: 0
AST (raised), no. of patients [3]: 0
Abdominal pain, no. of patients [3]: 0
Alkaline phophatase (raised), no. of patients [3]: 1
Altered taste, no. of patients [3]: 0
Anaemia, no. of patients [3]: 1
Anorexia, no. of patients [3]: 0
Bilirubin (raised), no. of patients [3]: 0
CPK, no. of patients [3]: 1
Cardiac arrythmia other, no. of patients [3]: 0
Cardiac dysfunction, no. of patients [3]: 0
Cardiac ischaemia, no. of patients [3]: 0
Constipation, no. of patients [3]: 0
Creatinine (raised), no. of patients [3]: 0
Diarrhoea, no. of patients [3]: 0
Fatigue, no. of patients [3]: 0
Leukopenia, no. of patients [3]: 0
Lymphopenia, no. of patients [3]: 0
Mucositis, no. of patients [3]: 0
Myositis, no. of patients [3]: 1
Nausea, no. of patients [3]: 0
Neutropenia, no. of patients [3]: 0
QT prolongation, no. of patients [3]: 0
Supra ventricular arrythmia, no. of patients [3]: 0
Syncope, no. of patients [3]: 1
Thrombocytopenia, no. of patients [3]: 0
Ventricular arrythmias (PVCs), no. of patients [3]: 0
Ventricular bigemini, no. of patients [3]: 0
Vomiting, no. of patients [3]: 0
ALT (raised), no. of patients [4]: 0
AST (raised), no. of patients [4]: 0
Abdominal pain, no. of patients [4]: 0
Alkaline phophatase (raised), no. of patients [4]: 0
Altered taste, no. of patients [4]: 0
Anaemia, no. of patients [4]: 0
Anorexia, no. of patients [4]: 0
Bilirubin (raised), no. of patients [4]: 0
CPK, no. of patients [4]: 0
Cardiac arrythmia other, no. of patients [4]: 0
Cardiac dysfunction, no. of patients [4]: 0
Cardiac ischaemia, no. of patients [4]: 0
Constipation, no. of patients [4]: 0
Creatinine (raised), no. of patients [4]: 0
Diarrhoea, no. of patients [4]: 0
Fatigue, no. of patients [4]: 0
Leukopenia, no. of patients [4]: 0
Lymphopenia, no. of patients [4]: 0
Mucositis, no. of patients [4]: 0
Myositis, no. of patients [4]: 0
Nausea, no. of patients [4]: 0
Neutropenia, no. of patients [4]: 0
QT prolongation, no. of patients [4]: 0
Supra ventricular arrythmia, no. of patients [4]: 0
Syncope, no. of patients [4]: 0
Thrombocytopenia, no. of patients [4]: 0
Ventricular arrythmias (PVCs), no. of patients [4]: 0
Ventricular bigemini, no. of patients [4]: 0
Vomiting, no. of patients [4]: 0
ALT (raised), no. of patients [5]: 0
AST (raised), no. of patients [5]: 0
Abdominal pain, no. of patients [5]: 0
Alkaline phophatase (raised), no. of patients [5]: 0
Altered taste, no. of patients [5]: 0
Anaemia, no. of patients [5]: 0
Anorexia, no. of patients [5]: 0
Bilirubin (raised), no. of patients [5]: 0
CPK, no. of patients [5]: 0
Cardiac arrythmia other, no. of patients [5]: 0
Cardiac dysfunction, no. of patients [5]: 0
Cardiac ischaemia, no. of patients [5]: 0
Constipation, no. of patients [5]: 0
Creatinine (raised), no. of patients [5]: 0
Diarrhoea, no. of patients [5]: 0
Fatigue, no. of patients [5]: 0
Leukopenia, no. of patients [5]: 0
Lymphopenia, no. of patients [5]: 2
Mucositis, no. of patients [5]: 0
Myositis, no. of patients [5]: 0
Nausea, no. of patients [5]: 0
Neutropenia, no. of patients [5]: 0
QT prolongation, no. of patients [5]: 0
Supra ventricular arrythmia, no. of patients [5]: 0
Syncope, no. of patients [5]: 0
Thrombocytopenia, no. of patients [5]: 0
Ventricular arrythmias (PVCs), no. of patients [5]: 0
Ventricular bigemini, no. of patients [5]: 0
Vomiting, no. of patients [5]: 0
ALT (raised), no. of patients [6]: 2
AST (raised), no. of patients [6]: 0
Abdominal pain, no. of patients [6]: 0
Alkaline phophatase (raised), no. of patients [6]: 0
Altered taste, no. of patients [6]: 0
Anaemia, no. of patients [6]: 0
Anorexia, no. of patients [6]: 0
Bilirubin (raised), no. of patients [6]: 0
CPK, no. of patients [6]: 0
Cardiac arrythmia other, no. of patients [6]: 0
Cardiac dysfunction, no. of patients [6]: 0
Cardiac ischaemia, no. of patients [6]: 0
Constipation, no. of patients [6]: 0
Creatinine (raised), no. of patients [6]: 0
Diarrhoea, no. of patients [6]: 1
Fatigue, no. of patients [6]: 1
Leukopenia, no. of patients [6]: 1
Lymphopenia, no. of patients [6]: 3
Mucositis, no. of patients [6]: 0
Myositis, no. of patients [6]: 0
Nausea, no. of patients [6]: 0
Neutropenia, no. of patients [6]: 0
QT prolongation, no. of patients [6]: 0
Supra ventricular arrythmia, no. of patients [6]: 0
Syncope, no. of patients [6]: 0
Thrombocytopenia, no. of patients [6]: 0
Ventricular arrythmias (PVCs), no. of patients [6]: 0
Ventricular bigemini, no. of patients [6]: 0
Vomiting, no. of patients [6]: 0
ALT (raised), no. of patients [7]: 0
AST (raised), no. of patients [7]: 0
Abdominal pain, no. of patients [7]: 0
Alkaline phophatase (raised), no. of patients [7]: 0
Altered taste, no. of patients [7]: 0
Anaemia, no. of patients [7]: 0
Anorexia, no. of patients [7]: 0
Bilirubin (raised), no. of patients [7]: 0
CPK, no. of patients [7]: 0
Cardiac arrythmia other, no. of patients [7]: 0
Cardiac dysfunction, no. of patients [7]: 0
Cardiac ischaemia, no. of patients [7]: 0
Constipation, no. of patients [7]: 0
Creatinine (raised), no. of patients [7]: 0
Diarrhoea, no. of patients [7]: 0
Fatigue, no. of patients [7]: 2
Leukopenia, no. of patients [7]: 1
Lymphopenia, no. of patients [7]: 3
Mucositis, no. of patients [7]: 0
Myositis, no. of patients [7]: 0
Nausea, no. of patients [7]: 0
Neutropenia, no. of patients [7]: 1
QT prolongation, no. of patients [7]: 0
Supra ventricular arrythmia, no. of patients [7]: 0
Syncope, no. of patients [7]: 0
Thrombocytopenia, no. of patients [7]: 1
Ventricular arrythmias (PVCs), no. of patients [7]: 0
Ventricular bigemini, no. of patients [7]: 0
Vomiting, no. of patients [7]: 0
ALT (raised), no. of patients [8]: 0
AST (raised), no. of patients [8]: 0
Abdominal pain, no. of patients [8]: 0
Alkaline phophatase (raised), no. of patients [8]: 0
Altered taste, no. of patients [8]: 0
Anaemia, no. of patients [8]: 0
Anorexia, no. of patients [8]: 0
Bilirubin (raised), no. of patients [8]: 0
CPK, no. of patients [8]: 0
Cardiac arrythmia other, no. of patients [8]: 0
Cardiac dysfunction, no. of patients [8]: 0
Cardiac ischaemia, no. of patients [8]: 0
Constipation, no. of patients [8]: 0
Creatinine (raised), no. of patients [8]: 0
Diarrhoea, no. of patients [8]: 0
Fatigue, no. of patients [8]: 1
Leukopenia, no. of patients [8]: 0
Lymphopenia, no. of patients [8]: 0
Mucositis, no. of patients [8]: 0
Myositis, no. of patients [8]: 0
Nausea, no. of patients [8]: 0
Neutropenia, no. of patients [8]: 0
QT prolongation, no. of patients [8]: 0
Supra ventricular arrythmia, no. of patients [8]: 0
Syncope, no. of patients [8]: 0
Thrombocytopenia, no. of patients [8]: 0
Ventricular arrythmias (PVCs), no. of patients [8]: 0
Ventricular bigemini, no. of patients [8]: 0
Vomiting, no. of patients [8]: 1
Dose omissions, no. of patients (RPTD 60 mg, n=7, alteration of liver function tests): two
Dose reductions, no. of patients (RPTD 60 mg, n=7, transaminase rise and QTc prolongation): two
Grade 3 diarrhea, no. of patients (all 38 treated patients): one
Grade 3 fatigue, no. of patients (all 38 treated patients): 4
Grade 3 myositis, no. of patients (all 38 treated patients): one
Grade 3 syncope, no. of patients (all 38 treated patients): one
Grade 3 vomiting, no. of patients (all 38 treated patients): one
Anorexia, related AE, frequency [9]: 29%
Diarrhoea, related AE, frequency [9]: 18%
Fatigue, related AE, frequency [9]: 53%
Nausea, related AE, frequency [9]: 39%
Vomiting, related AE, frequency [9]: 29%
Grade 2 QTc prolongation, no. of patients (all dose levels): four
Grade 3 QTc elevations (all dose levels): none were grade 3
No. of patients with DLT/total no. of patients treated (dose level 1, dose 10, 3 days every 2 weeks): 0/3
No. of patients with DLT/total no. of patients treated (dose level 2, dose 10, 5 days every 2 weeks, grade 3 bilirubin subsequently declared not drug related): 1/6 ^a
DLT [10]: Grade 3 myositis
No. of patients with DLT/total no. of patients treated [10]: 1/6
No. of patients with DLT/total no. of patients treated (dose level 4, dose 30, 5 days every 2 weeks): 0/4
No. of patients with DLT/total no. of patients treated (dose level 5, dose 50, 5 days every 2 weeks): 0/4
DLT (dose level 5.5, dose 60, 5 days every 2 weeks, not clear if entirely related to drug): Grade 3 ALT ^d
No. of patients with DLT/total no. of patients treated (dose level 6, dose 70, 5 days every 2 weeks, escalation phase): 0/3
DLT [11]: Grade 4 platelets Grade 3 fatigue
No. of patients with DLT/total no. of patients treated [11]: 3/3
DLT (dose level 7, dose 90, 5 days every 2 weeks): Grade 3 fatigue Grade 3 vomiting
No. of patients with DLT/total no. of patients treated (dose level 7, dose 90, 5 days every 2 weeks, neither patient completed a full cycle): 1/2 ^b
Grade 2 QTc prolongation, no. of patients (dose level of 60 mg or higher): three
Granulocytopenia, patients (dose levels ⩽50 mg): 26%
Lymphopenia, patients (dose levels ⩽50 mg): 57%
Granulocytopenia, patients (dose ⩾60 mg): 60%
Lymphopenia, patients (dose ⩾60 mg): 80%
Thrombocytopenia, patients (dose ⩾60 mg): 87%
Anaemia, no. of patients (grade 1): 25
Anaemia, no. of patients (grade 2): 10
Anaemia, no. of patients (grade 3): 1
Anaemia on study, no. of patients (of 38 patients, any grade): Thirty-six
Maximum QTc (one patient, Day 1 cycle 7, 10 h after dose, unclear if drug related): 475 ms
LVEF during periods of arrhythmia (one patient, cycle 7, baseline 55%, unclear if drug related): 20–39%
Recommended phase II dose (RPTD) (oral, 5 consecutive days every 2 weeks): 60 mg
Maximal administered dose (MAD) (oral, 5 days every 2 weeks): 90 mg
Grade 3 CPK elevation, no. of patients (patient with myositis): one
